Measured values reported in patent US20240398767A1, “INHIBITORS OF THE MTDH-SND1 PROTEIN COMPLEX FOR CANCER THERAPY” (The Trustees of Princeton University, priority 2021, published 2024).

Key:
[1] = system: SCP28 tumors with MTDH or SND1 KD; assay: SCP28 tumor models with MTDH or SND1 KD; assay type: in vivo, NSG females
Experimental: FIG. 17A, Indicated cells were injected into NSG females orthotopically and followed by vehicle or C26-A6 treatment after 2 weeks. Tumor volumes were measured 8 weeks after injection. Vehicle, n=6 mice; C26-A6, n=6 mice.
FIG. 17B, Spontaneous lung metastasis of the mice in FIG. 17A were assessed by BLI (right). Size bar, 5 mm. Vehicle, n=5 lungs; C26-A6, n=6 lungs.
FIG. 17C, The SND1 and MTDH expression of the cells used in FIG. 17A was evaluated.
Next, to further validate that the anti-tumor effect of C26-A6 depends on its on-target effects by disrupting MTDH-SND1 complex, PyMT; UBC-Cre^ERT+/−;Mtdh^fl/fl tumor cells with Mtdh depletion or with endogenous Snd1 KD were employed for the similar assay as in FIG. 5-1a. […] Likewise, MTDH or SND1 KD abolished the C26-A6 treatment-induced primary tumor inhibition or metastasis reduction in SCP28 tumor models (Extended Data FIG. 10-1a-c).

PyMT tumor cells = assay: Experimental lung metastasis, tail vein injection of PyMT tumor cells; assay type: in vivo, FVB mice; settings: treatment from 3 days after injection, five weeks
Experimental: FIG. 5L, 2 k PyMT tumor cells were injected into FVB females via tail-vein. 3 days after injection, the mice were treated with vehicle or C26-A6.
FIG. 5M, 2 k PyMT tumor cells were injected into FVB females via tail-vein. 3 days after injection, the mice were treated with vehicle or C26-A6. 5 weeks later, lung metastatic nodules were counted. n=6 mice per group. Data represent mean±SEM.
To exclude the possibility that the lung metastasis reduction upon C26-A6 treatment was due to the smaller primary tumor, tail vein injection of PyMT tumor cells was performed to form experimental lung metastasis in FVB mice. Three days later, mice were divided randomly into two groups and treated with vehicle or C26-A6 respectively (FIG. 5L).

COc1ccc(Cl)cc1S(=O)(=O)Nc1cccn2nc(C)nc12 [Analog C26-A6]
C26-A6 treatment-induced primary tumor inhibition or metastasis reduction [1]: abolished | lung metastasis (metastatic nodules) (PyMT tumor cells): significantly suppressed lung metastasis
